The source of these data is patent US10106523B2, “Amide compound” (ASTELLAS PHARMA INC., priority 2014, dated 2018).

The pIC50 is the IC50 on a negative log10 scale, so that one unit is a factor of ten. What is called pKi is the Ki on a negative log10 scale, so that one unit is a factor of ten.

pIC50, pKi: −log10 of the molar value.

For assay [1], the target named is T1, human EP4 receptor (Homo sapiens, UniProt P35408).
T1 construct: purchased Chemicon
Kind of assay: Human EP4 receptor antagonistic action by measurement of cAMP amount in human Jurkat cells. The assay is classed as cell-based. To be noted: PGE2 100 nmol/L, average of three experiments, read-out: IC50 value with respect to the cAMP production action by PGE2 in human Jurkat cells. As for the experimental part:
Test Example 3: Evaluation Test of Human EP4 Receptor Antagonistic Action by Measurement of cAMP Amount in Human Jurkat Cells
Jurkat cells (derived from human leukemia T lymphoma) were cultured under the conditions of 37° C. and 5% CO2, using an RPMI1640 culture medium (product No. 11879020, Invitrogen Inc.) with 10% fetal bovine serum (FBS) added. After proliferation up to semiconfluency, indomethacin having a final concentration of […] was added thereto, and the cells were further cultured for 18 hours. These cells were collected in a 15 mL Spitz tube, prepared at 1×10^6 cells/mL using a Cell Banker (Mitsubishi Kagaku Iatron), and stored at −80° C. […]
A cAMP HiRange kit (Cisbio international) was used for cAMP measurement. […] After incubation, the fluorescence intensity of the cryptate at 620 nm and the fluorescence intensity of the d2 at 665 nm were measured using ARVO1420 (PerkinElmer). The cAMPs at 280, 70, 17.5, 4.38, 1.09, 0.27, and 0.068 nmol/L were added to each well and the fluorescence intensity was measured as described above to create a standard curve. […] An average value was calculated from three experiment results.

The target of assay [2] is T1, human EP4 receptor. Kind of assay: Evaluation test of human EP4 receptor affinity ([3H]PGE2 binding, membrane fraction). To be noted: 2.9 nmol/L [3H]PGE2, human EP4 cell membrane fraction, 25° C. 60 minutes; read-out: Ki value with respect to the human EP4 receptor. As for the experimental part: Test Example 2: Evaluation Test of Human EP4 Receptor Affinity
[^3H]PGE2 and a human EP4 cell membrane fraction (Chemicon) were diluted with an assay buffer (50 mmol/L HEPES-NaOH, 5 mmol/L MgCl2, 1 mmol/L CaCl2 (pH 7.4), 0.5% bovine serum albumin (BSA)), and the test compound and unlabeled PGE2 (Sigma) were diluted with DMSO and the assay buffer. The composition of the reaction liquid (250 μL) was set to be as follows: 175 μL of an assay buffer containing [^3H]PGE2 (final concentration of 2.9 nmol/L), 50 μL of a membrane fraction (Chemicon, 40 μg protein/mL), and 25 μL of a test compound (final concentrations of 0.1, 1, 10, 100, and 1000 nmol/L). For the measurement of the non-specific binding, the unlabeled PGE2 was added to a final concentration of 10 μmol/L. The final concentration of DMSO was set to 1%. The reaction liquid was incubated at 25° C. for 60 minutes. The reaction liquid was filtered with a GF/C filter paper (Whatman), using a cell harvester (Brandel). The filter paper after filtration was washed three times with 1 mL of a solution containing 50 mmol/L HEPES-NaOH (pH 7.4), 500 mmol/L NaCl, and 0.1% BSA. […] The radioactive activity was measured using a liquid scintillation counter (Perkin Elmer). […] The specific binding amount was determined by subtracting the non-specific binding amount from the total binding amount. The Ki value was calculated according to a standard method.

Assay [3] concerns db/db mice with type 2 diabetes. Kind of assay: Effect on albumin in urine of db/db mice with type 2 diabetes. Format: in vivo, mouse. The note with it: 0.3 mg/kg po once per day for one week. The protocol: Test Example 7: Test for Investigation of Effect on Albumin in Urine of db/db Mice with Type 2 Diabetes
db/db Mice (male, 8-week old) with type 2 diabetes were used for the test. The albumin concentrations in urine samples obtained by urine collection for 24 hours were measured by an ELISA method using an anti-mouse albumin antibody (RAM/Alb/7S, Nordic Immunology), and the creatinine concentration in urine was measured using CRE-EN Kainos (Kainos Co., Ltd.). The albumin-creatinine ratio (ACR) in urine was calculated, and a group (n=12) not treated with the test compound and a group (n=12) treated with the test compound were allocated without a bias in ACR. The test compound suspended in a 0.5% methyl cellulose (MC) solution was orally administered to the group treated with the test compound at a dose of 0.3 mg/kg once per day for one week (10 mL/kg). […] Urine was collected for 24 hours from the completion of the final administration, and using the calculated ACR as an indicator, the improvement effect of the test compound on the early nephropathy of the mice with type 2 diabetes was investigated. The inhibitory rate of ACR of the group treated with the test compound by taking the ACR value of the group not treated with the test compound as 100% was determined.

T1 sequence (P35408 whole entry): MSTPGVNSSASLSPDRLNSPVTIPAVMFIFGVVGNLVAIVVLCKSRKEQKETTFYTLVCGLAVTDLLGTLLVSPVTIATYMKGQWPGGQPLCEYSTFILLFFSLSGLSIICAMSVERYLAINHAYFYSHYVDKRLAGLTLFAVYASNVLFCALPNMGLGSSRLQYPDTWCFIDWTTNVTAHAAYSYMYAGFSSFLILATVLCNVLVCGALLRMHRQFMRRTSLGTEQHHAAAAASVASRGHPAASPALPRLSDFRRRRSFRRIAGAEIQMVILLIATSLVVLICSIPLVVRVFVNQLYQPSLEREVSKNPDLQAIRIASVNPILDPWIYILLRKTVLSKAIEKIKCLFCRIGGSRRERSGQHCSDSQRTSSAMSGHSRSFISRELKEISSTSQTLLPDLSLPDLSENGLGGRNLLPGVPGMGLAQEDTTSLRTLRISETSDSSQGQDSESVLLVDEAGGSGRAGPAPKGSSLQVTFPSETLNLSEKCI

`Cc1nn(Cc2cc3ccccc3cn2)c(C(=O)N[C@@H](C)c2ccc(C(=O)O)cc2)c1Br` [Compound A, 4-[(1S)-1-({[4-bromo-1-(isoquinolin-3-ylmethyl)-3-methyl-1H-pyrazol-5-yl]carbonyl}amino)ethyl]benzoic acid]: in assay [1], the negative-log IC50 (pIC50) is 9.80. Besides, the pKi in assay [2] was 8.84. The “Inhibitory rate of ACR (albumin-creatinine ratio in urine)” value in assay [3] was 44%.
